For one compound, IC50 results are on record in paper PMC6109596 (Cancer letters, 2018).

This assay deals with ABCB1 (P-glycoprotein/MDR1) (Homo sapiens, UniProt P08183). The assay is described as follows: biochemical.
ABCB1 (P-glycoprotein/MDR1), sequence (P08183 whole entry): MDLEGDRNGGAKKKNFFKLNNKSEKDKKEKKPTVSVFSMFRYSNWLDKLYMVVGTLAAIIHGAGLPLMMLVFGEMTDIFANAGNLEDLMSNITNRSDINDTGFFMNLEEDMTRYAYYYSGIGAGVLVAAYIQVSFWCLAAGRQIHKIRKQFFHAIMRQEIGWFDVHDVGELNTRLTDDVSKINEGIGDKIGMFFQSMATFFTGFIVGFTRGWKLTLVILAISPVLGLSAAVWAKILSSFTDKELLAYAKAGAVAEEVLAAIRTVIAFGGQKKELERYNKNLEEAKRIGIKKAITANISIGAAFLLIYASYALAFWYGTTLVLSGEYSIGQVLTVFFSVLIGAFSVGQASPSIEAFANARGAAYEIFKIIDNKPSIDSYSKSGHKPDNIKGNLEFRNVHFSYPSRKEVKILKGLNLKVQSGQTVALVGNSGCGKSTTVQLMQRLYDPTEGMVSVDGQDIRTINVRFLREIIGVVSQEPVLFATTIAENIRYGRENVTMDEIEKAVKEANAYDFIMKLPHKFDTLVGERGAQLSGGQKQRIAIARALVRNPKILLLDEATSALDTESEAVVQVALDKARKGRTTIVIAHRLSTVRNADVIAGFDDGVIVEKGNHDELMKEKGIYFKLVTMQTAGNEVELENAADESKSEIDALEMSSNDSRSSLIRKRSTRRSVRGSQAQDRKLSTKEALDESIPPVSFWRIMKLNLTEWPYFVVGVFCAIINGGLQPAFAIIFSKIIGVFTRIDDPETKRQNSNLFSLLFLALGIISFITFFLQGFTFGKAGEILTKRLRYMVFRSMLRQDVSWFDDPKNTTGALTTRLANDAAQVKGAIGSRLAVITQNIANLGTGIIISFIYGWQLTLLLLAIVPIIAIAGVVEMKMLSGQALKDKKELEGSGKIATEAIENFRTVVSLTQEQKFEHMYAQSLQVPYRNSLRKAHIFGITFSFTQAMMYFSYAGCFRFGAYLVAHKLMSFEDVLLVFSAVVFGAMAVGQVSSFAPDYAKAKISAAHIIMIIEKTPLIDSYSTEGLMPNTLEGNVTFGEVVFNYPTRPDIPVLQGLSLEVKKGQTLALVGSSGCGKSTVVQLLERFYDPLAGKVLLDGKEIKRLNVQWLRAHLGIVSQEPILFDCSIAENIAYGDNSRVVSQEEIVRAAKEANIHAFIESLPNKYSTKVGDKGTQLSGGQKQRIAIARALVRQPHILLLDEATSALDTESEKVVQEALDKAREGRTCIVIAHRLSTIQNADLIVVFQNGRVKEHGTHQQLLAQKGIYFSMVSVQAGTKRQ

A word on the IC50: it is the midpoint of a concentration-inhibition curve. Turning to `N#Cc1cc2c(OCC(O)CN3CCN(C(c4ccccc4)c4ccccc4)CC3)cccc2[nH]1` (racemic) [DPI-201106], the IC50 was about 500 nM.
